Results on two molecules are retold here after ChEMBL document CHEMBL3739280, “12,17-Cyclojatrophane and Jatrophane Constituents of Euphorbia welwitschii” (J Nat Prod, 2015).

Test [1] in a line: Resistance index, ratio IC50 for human EPG85-257RDB cells to IC50 for human EPG85-257 cells. The format is functional.
Test [2] can be described thus: Antiproliferative activity against human EPG85-257RDB cells after 5 days by SRB assay. It counts as functional, cell-based. The following applies: 120 h.
Test [3] can be described thus: Resistance index, ratio IC50 for human EPP85-181RDB cells to IC50 for human EPP85-181P cells. The format is functional.
A short description of test [4]: Antiproliferative activity against human EPP85-181RN cells after 5 days by SRB assay. The following applies: 120 h. The format is functional, cell-based.
The nature of test [5]: Resistance index, ratio IC50 for human EPP85-181RN cells to IC50 for human EPP85-181P cells. It counts as functional.
Test [6] can be described thus: Antiproliferative activity against human EPP85-181RDB cells after 5 days by SRB assay. It counts as functional, cell-based. The following applies: 120 h.

For the molecule `C=C1[C@H](OC(=O)C(C)C)[C@@H](OC(=O)C(C)C)[C@@H](OC(=O)c2cccnc2)C(C)(C)[C@H](O)[C@H]2O[C@@]3(C[C@H](C)[C@H](OC(C)=O)[C@@H]3[C@H]1OC(C)=O)C(=O)[C@H]2C`, the “Ratio IC50” value in test [1] was 0.6. Further, the IC50 in test [2] was determined as 17.2 µM.

Turning to `C=C1[C@H](OC(=O)C(C)C)[C@@H](OC(=O)C(C)C)[C@@H](OC(=O)c2cccnc2)C(C)(C)[C@H]2O[C@@H]2[C@@H](C)C(=O)[C@@]2(O)C[C@H](C)[C@H](OC(C)=O)[C@@H]2[C@H]1OC(C)=O`, the “Ratio IC50” value was determined as 0.6 in test [3], 0.7 in test [5] and 0.1 in test [1]. Besides, the IC50 in test [4] amounted to 21.3 µM; in test [6] it was 18.2 µM; in test [2], 3.6 µM.
